Test results reported in BindingDB's records for doi:10.1016/j.bmcl.2004.09.002 (A.V. Bogatsky Physico-Chemical Institute of The National …, 2004).
Structures can show the parent of a compound that is named as a salt.

Test: In vitro inhibition of human platelet aggregation in suspension

Structure (SMILES): O=C(O)CC(NC(=O)CCC(=O)Nc1ccc2c(c1)CNC2)c1ccccc1 (configuration not stated) [3-[3-(2,3-Dihydro-1H-isoindol-5-ylcarbamoyl)-propionylamino]-3-phenyl-propionic acid; hydrochloride]
- IC50: 0.27 µM

Structure (SMILES): O=C(O)CCNC(=O)CCC(=O)Nc1ccc2c(c1)CNC2 [3-[3-(2,3-Dihydro-1H-isoindol-5-ylcarbamoyl)-propionylamino]-propionic acid; hydrochloride]
- IC50: 2.09 µM
